These are literature values, as cited in patent US20200330542A1, “COMPOSITION FOR THE ACUTE AND CHRONIC TREATMENT OF CONSTIPATION” (NEILOS S.R.L., priority 2017, published 2020).

For the series the following is noted: human, in vivo.

On to glucomannan, for which the tolerability result is “well tolerated without significant side effects”.
